Measurements as given in patent US20220251625A1, “NOVEL DIAGNOSTIC MARKER FOR PANCREATIC CANCER” (URTESTE S.A., priority 2019, published 2022).
Where “and” joins values, the source holds several entries; their conditions need not be identical. Equal values may be shown once. Numbered stars: 1 amine (or outer) side, 2 acyl side, 3 side chain; on linkers, the order of the positions; unused ones are H or OH. Square brackets hold non-standard residues; d marks the D form. Ends that are not written are not given here. Benzoyl(5-NH,2-NO2) = O=C(c1cc(N[*:1])ccc1[N+](=O)[O-])[*:2]; 2Abz = Nc1ccccc1C(=O)O

Experiments:
Assay type in all cases: biochemical, human
[1] = test system: proteolytic enzymes in urine; assay: Hydrolysis of chromogenic peptide substrate in urine samples, absorbance at 405 nm; parameters: rate of hydrolysis of substrate: unit not given here; conditions: for rate of hydrolysis of substrate: triplicate, 37° C., pH 8.0, 405 nm
Protocol: Arabic numbers indicate the number of the selected urine sample. […] The result indicates the absence of proteolytic enzymes characteristic of pancreatic cancer.
Arabic numbers indicate the number of the selected urine sample. A similar result as described above for FIG. 1 is obtained.
The study on the application of new compounds was performed on a group of 10 patients diagnosed with pancreatic cancer. For this purpose, the compound with formula 2: ABZ-Thr-Thr-Ala-Arg-ANB-NH2 or formula 3: ABZ-Thr-Thr-Ala-Arg-pNA was dissolved in dimethyl sulfoxide (at a concentration of 0.5 mg/mL); 50 μL of this solution was mixed with 120 μl buffer (200 mM Tris-HCl, pH 8.0) and 80 μL of urine of a person with pancreatic cancer. The measurement was made in a 96-well plate designed for measuring absorbance, and each sample was analysed in triplicate at 37° C. The duration of the measurement was 60 minutes. During the measurement, the wavelength characteristic of the released chromophore (ANB-NH2 or pNA) was monitored at 405 nm (range 380-430 nm).
As a result of the measurement, the colour of the solution increased over time in all urine samples from patients diagnosed with pancreatic cancer. The observed absorbance increase over time was different for each of the tested samples.

[2] = test system: proteolytic enzymes in urine; assay: Degree of substrate hydrolysis versus pH of the reaction environment; parameters: degree of substrate hydrolysis: unit not given here; conditions: for degree of substrate hydrolysis: triplicate
Protocol: Tested pH values are indicated on the x-axis. The relationship between proteolytic activity and pH of reaction environment was assessed.

[3] = test system: proteolytic enzymes in urine; assay: RP HPLC analysis of substrate hydrolysis in urine of a person diagnosed with pancreatic cancer; conditions: urine from a person diagnosed with pancreatic cancer
Protocol: A: ABZ-Thr-Thr-Ala-Arg-ANB NH2 substrate in 200 mM Tris-HCl buffer, pH 8.0. B: Hydrolysis of ABZ-Thr-Thr-Ala-Arg-ANB NH2 substrate in urine of patients diagnosed with pancreatic cancer.

[4] = test system: proteolytic enzymes in urine; assay: Hydrolysis of chromogenic peptide substrate in urine samples, absorbance at 405 nm; conditions: urine samples from healthy individuals (15 samples)
[5] = urine sample 1, patient diagnosed with pancreatic cancer
[6] = urine sample 3, patient diagnosed with pancreatic cancer
[7] = urine sample 4, patient diagnosed with pancreatic cancer
[8] = urine sample 5, patient diagnosed with pancreatic cancer
[9] = urine sample 6, patient diagnosed with pancreatic cancer
[10] = urine sample 7, patient diagnosed with pancreatic cancer
[11] = urine sample 8, patient diagnosed with pancreatic cancer
[12] = urine sample 9, patient diagnosed with pancreatic cancer
[13] = urine sample 10, patient diagnosed with pancreatic cancer

rate of hydrolysis of substrate [1, 5] | rate of hydrolysis of substrate [1, 6] | rate of hydrolysis of substrate [1, 7] | rate of hydrolysis of substrate [1, 8] | rate of hydrolysis of substrate [1, 9] | rate of hydrolysis of substrate [1, 10] | rate of hydrolysis of substrate [1, 11] | rate of hydrolysis of substrate [1, 12] | rate of hydrolysis of substrate [1, 13] | Substance | cleavage products by RP HPLC [3] | also measured
0.128 and 0.152 and 0.2109 | 0.07457 and 0.07826 and 0.07178 | 0.03727 and 0.03636 and 0.03044 | 0.02734 and 0.01944 and 0.02312 | 0.04416 and 0.04476 and 0.04487 | 0.02666 and 0.02332 and 0.025 | 0.02045 and 0.02486 and 0.02345 | 0.00647 and 0.00797 and 0.00596 | 0.08668 and 0.1146 and 0.08522 | ABZ-Thr-Thr-Ala-Arg-ANB-NH2 ([2Abz]TTAR-{Benzoyl(5-NH,2-NO2)-NH2}) [chromogenic peptide; ABZ is 2-aminobenzoic acid, ANB-NH2 is amide of 5-amino-2-nitrobenzoic acid] | break down into the ABZ-Thr-Thr-Ala-Arg peptide fragment and chromophore | hydrolysis of the substrate / increase of colour (absorbance) over time ([1]; urine of patients diagnosed with pancreatic cancer (samples 1-10)): all samples 1-10 disintegrated; relationship between proteolytic activity and pH of reaction environment [2]: maximum activity at alkaline pH; degree of substrate hydrolysis ([2]; pH 3): 0; degree of substrate hydrolysis ([2]; pH 4): 0; degree of substrate hydrolysis ([2]; pH 5): 0; degree of substrate hydrolysis ([2]; pH 6): 0; degree of substrate hydrolysis ([2]; pH 7): 0; degree of substrate hydrolysis ([2]; pH 8): 0.07661 and 0.07534 and 0.09735; degree of substrate hydrolysis ([2]; pH 9): 0; increase in absorbance (hydrolysis of the test compound) [4]: does not lead to an increase in absorbance
0.22 and 0.189 and 0.2109 | 0.01632 and 0.01669 and 0.01723 | 0.01727 and 0.01636 and 0.01044 | 0.05734 and 0.05944 and 0.06152 | 0.05416 and 0.05476 and 0.05487 | 0.02666 and 0.02332 and 0.025 | 0.02045 and 0.02486 and 0.02345 | 0.01947 and 0.01797 and 0.01896 | 0.1167 and 0.1146 and 0.1052 | ABZ-Thr-Thr-Ala-Arg-pNA | break down into the ABZ-Thr-Thr-Ala-Arg peptide fragment and chromophore | rate of hydrolysis of substrate ([1]; urine sample 2, patient diagnosed with pancreatic cancer): 0.07457 and 0.07826 and 0.07178
